This experiment has as its target 1-phosphatidylinositol 3-phosphate 5-kinase (Homo sapiens, UniProt Q9Y2I7). The experiment in a line: Inhibition of PIKfyve. On the procedure: The kinase reactions were assembled in 384-well plates (Greiner) in a total volume of […] as follows. Kinase protein was pre-diluted in an assay buffer comprising 25 mM HEPES, pH 7.5, 1 mM DTT, 2.5 mM MgCl2, and 2.5 mM MnCl2, and 0.005% Triton X-100, and dispensed into a 384-well plate (10 μL per well). Test compounds were serially pre-diluted in DMSO and added to the protein samples by acoustic dispensing (Labcyte Echo). The concentration of DMSO was equalized to 1% in all samples. All test compounds were tested at 12 concentrations. Apilimod was used as a reference compound and was tested in identical manner in each assay plate. Control samples (0%-inhibition, in the absence of inhibitor, DMSO only) and 100%-inhibition (in the absence of enzyme) were assembled in replicates of four and were used to calculate %-inhibition in the presence of compounds. The reactions were initiated by addition of 10 μL of 2× PI3P/PS substrate supplemented with ATP. The final concentration of enzyme was 2 nM, the final concentration of ATP was […], and the final concentration of PI3P/PS substrate was 1 μM (PI3P). The kinase reactions were allowed to proceed for 3 h at room temperature. Following incubation, the reactions were quenched by addition of […] of termination buffer (100 mM HEPES, pH 7.5, 0.01% Triton X-100, 20 mM EDTA).

The structures appear in SMILES notation.

The term IC50 denotes the concentration that inhibits the measured activity by half. A higher IC50 goes with weaker potency.

Sequence of 1-phosphatidylinositol 3-phosphate 5-kinase (Q9Y2I7 whole entry): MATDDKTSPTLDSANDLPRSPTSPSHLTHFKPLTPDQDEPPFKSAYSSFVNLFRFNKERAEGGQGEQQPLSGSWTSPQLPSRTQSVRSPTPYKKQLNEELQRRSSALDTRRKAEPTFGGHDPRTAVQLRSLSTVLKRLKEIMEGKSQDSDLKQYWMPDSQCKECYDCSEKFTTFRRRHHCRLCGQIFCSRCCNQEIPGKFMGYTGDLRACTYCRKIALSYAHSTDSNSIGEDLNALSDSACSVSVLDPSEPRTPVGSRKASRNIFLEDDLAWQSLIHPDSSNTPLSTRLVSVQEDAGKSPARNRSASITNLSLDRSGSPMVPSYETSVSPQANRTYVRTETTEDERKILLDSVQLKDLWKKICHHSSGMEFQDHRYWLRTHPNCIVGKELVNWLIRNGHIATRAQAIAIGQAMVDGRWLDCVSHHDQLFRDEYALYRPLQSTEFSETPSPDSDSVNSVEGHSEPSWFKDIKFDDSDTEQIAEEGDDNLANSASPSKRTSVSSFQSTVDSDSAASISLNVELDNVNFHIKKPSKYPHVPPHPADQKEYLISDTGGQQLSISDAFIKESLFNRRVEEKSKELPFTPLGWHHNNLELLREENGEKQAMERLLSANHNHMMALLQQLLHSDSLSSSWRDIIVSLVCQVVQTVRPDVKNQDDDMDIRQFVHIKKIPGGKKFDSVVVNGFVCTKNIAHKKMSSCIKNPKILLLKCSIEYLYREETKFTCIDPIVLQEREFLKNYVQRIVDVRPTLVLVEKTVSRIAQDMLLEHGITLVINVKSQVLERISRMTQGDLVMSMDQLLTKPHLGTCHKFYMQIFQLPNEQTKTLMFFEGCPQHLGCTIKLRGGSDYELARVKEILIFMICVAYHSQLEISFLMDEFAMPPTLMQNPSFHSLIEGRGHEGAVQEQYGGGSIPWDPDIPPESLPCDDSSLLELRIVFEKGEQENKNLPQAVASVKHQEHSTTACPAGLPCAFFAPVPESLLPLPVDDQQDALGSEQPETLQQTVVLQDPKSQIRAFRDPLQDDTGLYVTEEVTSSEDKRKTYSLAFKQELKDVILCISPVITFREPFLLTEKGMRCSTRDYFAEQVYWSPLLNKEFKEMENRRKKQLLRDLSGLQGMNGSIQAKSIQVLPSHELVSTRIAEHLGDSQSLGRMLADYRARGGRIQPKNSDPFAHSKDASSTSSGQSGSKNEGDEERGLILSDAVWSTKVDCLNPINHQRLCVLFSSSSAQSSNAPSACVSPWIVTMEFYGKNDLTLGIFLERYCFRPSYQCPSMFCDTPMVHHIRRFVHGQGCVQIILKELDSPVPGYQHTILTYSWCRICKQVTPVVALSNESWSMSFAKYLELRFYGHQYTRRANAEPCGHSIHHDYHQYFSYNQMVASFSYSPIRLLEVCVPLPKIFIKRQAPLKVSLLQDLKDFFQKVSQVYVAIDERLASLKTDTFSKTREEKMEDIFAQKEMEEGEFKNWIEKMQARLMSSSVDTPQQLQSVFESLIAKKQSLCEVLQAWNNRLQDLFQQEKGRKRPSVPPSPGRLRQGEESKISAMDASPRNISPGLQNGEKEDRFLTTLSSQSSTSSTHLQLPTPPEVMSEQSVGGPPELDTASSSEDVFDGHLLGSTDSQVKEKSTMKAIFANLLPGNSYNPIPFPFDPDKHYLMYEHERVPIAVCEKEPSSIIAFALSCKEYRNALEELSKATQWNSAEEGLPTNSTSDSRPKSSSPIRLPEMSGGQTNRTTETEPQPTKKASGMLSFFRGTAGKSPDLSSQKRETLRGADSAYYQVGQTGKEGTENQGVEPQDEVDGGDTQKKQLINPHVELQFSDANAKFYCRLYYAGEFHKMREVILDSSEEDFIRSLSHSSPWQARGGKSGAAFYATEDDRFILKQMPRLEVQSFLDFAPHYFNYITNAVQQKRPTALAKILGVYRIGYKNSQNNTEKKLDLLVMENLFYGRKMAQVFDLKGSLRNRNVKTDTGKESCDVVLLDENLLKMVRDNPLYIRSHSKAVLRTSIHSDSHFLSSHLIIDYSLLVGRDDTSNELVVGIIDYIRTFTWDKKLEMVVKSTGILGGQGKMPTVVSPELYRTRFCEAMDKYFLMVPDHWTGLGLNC

Compound `Nc1ccc(-c2cc3nc(-n4ccc(-c5ccccc5)n4)cc(N4CCOCC4)n3n2)cn1` [US12486274, Compound 98] displayed an IC50 of 0.0299 µM.
